Results from patent US20250059159A1, “PLPRO INHIBITORS” (SHANGHAI SYNERGY PHARMACEUTICAL SCIENCES CO., LTD., priority 2021, published 2025).

Biological target: SARS-CoV-2 PLpro (Severe acute respiratory syndrome coronavirus 2 (2019-nCoV) (SARS-CoV-2), UniProt P0DTD1)
Assay: PLpro enzymatic inhibition assay (IC50 value determination)
Assay type: biochemical
Settings: 60 min preincubation for covalent inhibitors, 10 min for non-covalent, read-out: Inhibition of SARS-CoV-2 PLpro IC50 range

SMILES	IC50 [nM]
C#CCNC(=O)CNC(=O)CN(C1CCN(C(C)c2nccc3ccccc23)CC1)S(C)(=O)=O (stereo not drawn) [Compound 111, 2-(N-(1-(1-(isoquinolin-1-yl)ethyl)piperidin-4-yl)methylsulfonamido)-N-(2-oxo-2-(prop-2-yn-1-ylamino)ethyl)acetamide]	100 to 1000
C#CCNC(=O)CCC(=O)CN(C1CCN([C@H](C)c2cccc3ccccc23)CC1)S(C)(=O)=O [Compound 81, (R)-5-(N-(1-(1-(naphthalen-1-yl)ethyl)piperidin-4-yl)methylsulfonamido)-4-oxo-N-(prop-2-yn-1-yl)pentanamide]	1000 to 10000
CC(c1cccc2ccccc12)N1CCC(N(CC(=O)NCC(=O)NCC(=O)CF)S(C)(=O)=O)CC1 (stereo not drawn) [Compound 132, N-(3-fluoro-2-oxopropyl)-2-(2-(N-(1-(1-(naphthalen-1-yl)ethyl)piperidin-4-yl)methylsulfonamido)acetamido)acetamide]	< 100
C[C@H](c1cccc2ccccc12)N1CCC(N(CC(=O)NCC(=O)NC/C=C/S(C)(=O)=O)S(C)(=O)=O)CC1 [Compound 59, (R,E)-N-(3-(methylsulfonyl)allyl)-2-(2-(N-(1-(1-(naphthalen-1-yl)ethyl)piperidin-4-yl)methylsulfonamido)acetamido)acetamide]	100 to 1000
C#CCNC(=O)CNC(=O)CN(C1CCN(C(C)c2cccc(-c3cccs3)c2)CC1)S(C)(=O)=O (stereo not drawn) [Compound 141, N-(2-oxo-2-(prop-2-yn-1-ylamino)ethyl)-2-(N-(1-(1-(3-(thiophen-2-yl)phenyl)ethyl)piperidin-4-yl)methylsulfonamido)acetamide]	100 to 1000
COC(=O)/C=C/CNC(=O)c1nnc(CNC(=O)CN(C2CCN(C(C)c3cccc4ccccc34)CC2)S(C)(=O)=O)o1 (stereo not drawn) [Compound 136, methyl (E)-4-(5-((2-(N-(1-(1-(naphthalen-1-yl)ethyl)piperidin-4-yl)methylsulfonamido)acetamido)methyl)-1,3,4-oxadiazole-2-carboxamido)but-2-enoate]	100 to 1000
C#CCNC(=O)CNC(=O)CN(C1CCN([C@@H](C)c2cccc3ccccc23)CC1)S(=O)(=O)N1CCCC1 [Compound 91, (S)-2-(N-(1-(1-(naphthalen-1-yl)ethyl)piperidin-4-yl)pyrrolidine-1-sulfonamido)-N-(2-oxo-2-(prop-2-yn-1-ylamino)ethyl)acetamide]	< 100
C#CCNC(=O)CNC(=O)CN(C1CCN([C@H](C)c2cccc3ccccc23)CC1)S(=O)(=O)N1CCC(C(N)=O)C1 (stereo partly drawn) [Compound 137, 1-(N-(1-((R)-1-(naphthalen-1-yl)ethyl)piperidin-4-yl)-N-(2-oxo-2-((2-oxo-2-(prop-2-yn-1-ylamino)ethyl)amino)ethyl)sulfamoyl)pyrrolidine-3-carboxamide]	< 100
COC(CNC(=O)CNC(=O)CN(C1CCN(C(C)c2cccc3ccccc23)CC1)S(C)(=O)=O)OC (stereo not drawn) [Compound 154, N-(2,2-dimethoxyethyl)-2-(2-(N-(1-(1-(naphthalen-1-yl)ethyl)piperidin-4-yl)methylsulfonamido)acetamido)acetamide]	1000 to 10000
C#CCNC(=O)CNC(=O)CN(C1CCN(C(C)c2cccc3cccnc23)CC1)S(C)(=O)=O (stereo not drawn) [Compound 82, N-(2-oxo-2-(prop-2-yn-1-ylamino)ethyl)-2-(N-(1-(1-(quinolin-8-yl)ethyl)piperidin-4-yl)methylsulfonamido)acetamide]	100 to 1000
C#Cc1nnc(NC(=O)CN(C2CCN(C(C)c3cccc4ccccc34)CC2)S(C)(=O)=O)o1 (stereo not drawn) [Compound 170, N-(5-ethynyl-1,3,4-oxadiazol-2-yl)-2-(N-(1-(1-(naphthalen-1-yl)ethyl)piperidin-4-yl)methylsulfonamido)acetamide]	1000 to 10000
C#CCNC(=O)CNC(=O)CN(C1CCN(C(CF)c2cccc3ccccc23)CC1)S(C)(=O)=O (stereo not drawn) [Compound 144, 2-(N-(1-(2-fluoro-1-(naphthalen-1-yl)ethyl)piperidin-4-yl)methylsulfonamido)-N-(2-oxo-2-(prop-2-yn-1-ylamino)ethyl)acetamide]	1000 to 10000
